Assay results as given in patent US11000033B2, “Ketone or oxime compound, and herbicide” (NISSAN CHEMICAL CORPORATION, priority 2014, dated 2021).

Tests used:
Assay type in all cases: in vivo
soybean = experiment: Test Example 4: effect on crop by soil treatment (symbol d); details: 320 g/ha
In short: (§1)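 Crop seeds, among them rice, wheat, beet and rapeseed, were sown in sterilized diluvial soil and covered with about 1.5 cm of soil. Boxes were kept in a greenhouse at 25° C. to 30° C. for plant growth.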

Lolium multiflorum Lam. = experiment: Test Example 5: herbicidal effect by foliage application, plastic box (symbol K); details: 320 g/ha, 3 weeks after application
In short: (§2)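 After sowing into sterilized diluvial soil and growing two weeks under glass at 25° C. to 30° C., seedlings receive a uniform foliar spray of diluted emulsion. Damage is judged visually three weeks on.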

Galium spurium [1] = experiment: Test Example 5: herbicidal effect by foliage application, plastic box (symbol Q); details: 320 g/ha, 3 weeks after application
In short: as §2

Stellaria media = experiment: Test Example 4: herbicidal effect by soil treatment (symbol P); details: 320 g/ha
In short: (§3)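 Seeds were sown in sterilized diluvial soil, covered with about 1.5 cm of soil, and the soil surface was sprayed with a water-diluted emulsion of the compound at a predetermined rate. Plants grew in a greenhouse at 25° C. to 30° C.; effects were scored visually 3 weeks after application.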

wheat = experiment: Test Example 4: effect on crop by soil treatment (symbol e); details: 320 g/ha
In short: as §1

Galium spurium [2] = experiment: Test Example 4: herbicidal effect by soil treatment (symbol Q); details: 320 g/ha
In short: as §3

rice = experiment: Test Example 4: effect on crop by soil treatment (symbol b); details: 320 g/ha
In short: as §1

Alopecurus myosuroides [3] = experiment: Test Example 5: herbicidal effect by foliage application, plastic box (symbol J); details: 320 g/ha, 3 weeks after application
In short: as §2

corn = experiment: Test Example 4: effect on crop by soil treatment (symbol c); details: 320 g/ha
In short: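 Steps: fill box with sterilized diluvial soil; sow seed spot-like; cover with ~1.5 cm soil; grow in greenhouse (25° C. to 30° C.).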

Alopecurus myosuroides [4] = experiment: Test Example 4: herbicidal effect by soil treatment (symbol J); details: 320 g/ha
In short: as §3

Scirpus juncoides = experiment: Test Example 1: herbicidal activity, application before weed generation in submerged conditions (symbol B); details: application herbicide amount 320 g/ha
In short: (§4)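 Paddy pre-emergence test. Formulated emulsion, water-diluted to a predetermined rate, is applied to floodwater on sowing day; rice transplanted at 2.5 leaves. Effect read at 3 weeks on a 0–5 herbicidal-ratio scale.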

Setaria viridis = experiment: Test Example 5: herbicidal effect by foliage application, plastic box (symbol G); details: 320 g/ha, 3 weeks after application
In short: as §2

Cyperus difformis = experiment: Test Example 3: herbicidal effect by foliage application, Wagner pot (symbol E); details: application herbicide amount 320 g/ha
In short: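 Seeds sown in alluvial soil kept under 0.1–0.5 cm water, greenhouse 25–30 °C; 14 d growth. Leaves treated by small sprayer with water-diluted emulsion at a predetermined rate. Effect graded by set scale, 3 weeks.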

transplanted rice plant = experiment: Test Example 1: effect on crop, application before weed generation in submerged conditions (symbol a); details: application herbicide amount 320 g/ha
In short: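 Alluvial soil pots flooded to 4 cm water, sown with Echinochloa oryzacola, Scirpus juncoides and Monochoria vaginalis, then transplanted with 2.5 leaf stage rice seedlings; pre-emergence application. Greenhouse 25° C. to 30° C.; scored 0–5 by herbicidal ratio 3 weeks after application.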

[5] = test system: Echinochloa oryzacola Vasing.; experiment: Test Example 1: herbicidal activity, application before weed generation in submerged conditions (symbol A); details: application herbicide amount 320 g/ha
In short: as §4

Compound | d: soybean, effect grade on crop (soybean) | K: Lolium multiflorum Lam., herbicidal effect grade (Lolium multiflorum Lam.) | Q: Galium spurium, herbicidal effect grade (Galium spurium [1]) | P: Stellaria media, herbicidal effect grade (Stellaria media) | e: wheat, effect grade on crop (wheat) | Q: Galium spurium, herbicidal effect grade (Galium spurium [2]) | b: directly sowed rice plant, effect grade on crop (rice) | J: Alopecurus myosuroides, herbicidal effect grade (Alopecurus myosuroides [3]) | c: corn, effect grade on crop (corn) | J: Alopecurus myosuroides, herbicidal effect grade (Alopecurus myosuroides [4]) | Herbicidal effect grade, B: Scirpus juncoides (Scirpus juncoides) | G: Setaria viridis, herbicidal effect grade (Setaria viridis) | herbicidal effect on E, grade 0-5 (Cyperus difformis) | Effect grade on crop, a: transplanted rice plant (transplanted rice plant) | Herbicidal effect grade, A: Echinochloa oryzacola Vasing. [5]
CON=C(C)CC1CC(OC(=O)N(C)c2ccccc2)=C(c2c(C)cc(C)cc2C)C1=O (stereo not drawn) [1-159] | 0 (Herbicidal ratio of 5% or lower (almost no effect)) | 5 (Herbicidal ratio of 90% or more (almost completely withered)) | 0 (Herbicidal ratio of 5% or lower (almost no effect)) | 0 (Herbicidal ratio of 5% or lower (almost no effect)) | 1 (Herbicidal ratio of 5% or higher and lower than 20%) | 0 (Herbicidal ratio of 5% or lower (almost no effect)) | 3 (Herbicidal ratio of 40% or higher and lower than 70%) | 5 (Herbicidal ratio of 90% or more (almost completely withered)) | 0 (Herbicidal ratio of 5% or lower (almost no effect)) | 4 (Herbicidal ratio of 70% or higher and lower than 90%) | 0 (Herbicidal ratio of 5% or lower (almost no effect)) | 1 (Herbicidal ratio of 5% or higher and lower than 20%) | 4 (Herbicidal ratio of 70% or higher and lower than 90%) | 1 (Herbicidal ratio of 5% or higher and lower than 20%) | 5 (Herbicidal ratio of 90% or more (almost completely withered))
CON=C(C)CC1CC(OC(=O)c2c(Cl)nn(C)c2Cl)=C(c2c(C)cc(C)cc2C)C1=O (stereo not drawn) [1-160] | 0 (Herbicidal ratio of 5% or lower (almost no effect)) | 5 (Herbicidal ratio of 90% or more (almost completely withered)) | 4 (Herbicidal ratio of 70% or higher and lower than 90%) | 0 (Herbicidal ratio of 5% or lower (almost no effect)) | 2 (Herbicidal ratio of 20% or higher and lower than 40%) | 0 (Herbicidal ratio of 5% or lower (almost no effect)) | 5 (Herbicidal ratio of 90% or more (almost completely withered)) | 5 (Herbicidal ratio of 90% or more (almost completely withered)) | 0 (Herbicidal ratio of 5% or lower (almost no effect)) | 5 (Herbicidal ratio of 90% or more (almost completely withered)) | 4 (Herbicidal ratio of 70% or higher and lower than 90%) | 5 (Herbicidal ratio of 90% or more (almost completely withered)) | 5 (Herbicidal ratio of 90% or more (almost completely withered)) | 5 (Herbicidal ratio of 90% or more (almost completely withered)) | 5 (Herbicidal ratio of 90% or more (almost completely withered))
